These results are taken from PubChem BioAssay (NCI).

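Results reflect a 48-hour exposure of cells in 96-well plates to compound at five concentrations. GI50 marks 50% less growth. The concentration for full growth arrest is given as TGI.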

Holding throughout (assay): DTP human tumour cell line panel, 48 h
For test [1], the system named is LOX IMVI melanoma.
For test [2], the system named is SF-268 CNS.
The test system of test [3] is MOLT-4 leukemia.
Test [4] relates to SR leukemia.
Test [5] deals with HCT-15 colon.
Test [6] deals with COLO 205 colon.
For test [7], the system named is SNB-19 CNS.
For test [8], the system named is M14 melanoma.
For test [9], the system named is RXF 393 renal.
The test system of test [10] is CAKI-1 renal.

For orientation: GI50 means the concentration that inhibits growth by half. For orientation: TGI means the concentration at which net growth stops. Low readings indicate greater sensitivity of the cells, high ones lower sensitivity of the cells. Take `COC(=O)c1ccc2c(c1)c1c(C)c3ccncc3c(C)c1n2C`: the 50% growth inhibitory concentration (GI50) in [1] was 0.0887 µM; in [2], 0.114 µM; in test [3] it was 0.0992 µM; in [4] it was 0.0575 µM; in test [5], 0.215 µM; in test [6], 0.113 µM. Moreover, the figures for the GI50 in test [7] and in [8] were 0.206 µM and 0.453 µM, respectively. Moreover, the TGI in test [1] is 10.8 µM; in test [2], greater than 100 µM; in [3], 44.7 µM; in test [4], 3.39 µM; in test [5], 21.2 µM; in test [6], greater than 100 µM. Besides, the TGI was greater than 100 µM in test [7] and 36.3 µM in test [8].
As to `CC(O)CN1c2ccccc2Sc2ccc(Cl)cc21` (centres undefined), the TGI in test [1], in test [2], in test [9], in test [3], in test [5] and in test [10] was greater than 10 µM throughout. The TGI in test [6], in test [7] and in test [8] was greater than 10 µM in each case.
Consider `Cc1nc(Nc2ccccc2)sc1C(=O)CC(=O)C(=O)NC12CC3CC(CC(C3)C1)C2`, for which the TGI in test [1], in test [2], in test [9], in test [3], in test [5] and in test [10] was greater than 100 µM each time. For the same compound, the TGI in [6], in [7] and in [8] was greater than 100 µM each time.
Turning to `COC(=O)C(=O)C(C(=O)C(=O)Nc1ccc(C)cc1)c1nc2ccc(C(=O)c3ccccc3)cc2[nH]c1=O` (centres undefined), the TGI in test [1], in test [2], in test [9], in [5], in [10] and in test [7] was greater than 100 µM each time.
In the case of `CN(O)C(=S)c1ccccc1`, the TGI in [1] is 7.76 µM; in test [2], greater than 100 µM; in test [9], 14.5 µM; in test [3], 5.11 µM; in test [5], 37.6 µM; in [10], 81.3 µM. The TGI was 1.75 µM in test [6], greater than 100 µM in [7] and greater than 38.7 µM in [8].
For the compound `COc1ccc2c(c1)C(=O)c1c-2n(CCCN)c(=O)c2cc(OC)c(OC)cc12`, the GI50 was 0.0529 µM in test [1]; 0.515 µM in test [2]; 0.399 µM in [9]; less than 0.01 µM in test [3]; 0.229 µM in test [5]; 0.0619 µM in test [10]. Besides, the TGI was found to be 0.554 µM in test [1], 1.88 µM in test [9], 1.18 µM in [5] and 0.467 µM in test [10].
Consider `COC(=O)C1=C(O)[C@H](C(=O)OC)[C@]2(O)[C@@H](C(=O)OC)[C@H]1C[C@@H](c1ccc(OC(=O)/C=C/c3ccco3)cc1)[C@@H]2C(=O)OC`, for which the GI50 in test [1] is 1.59 µM; in test [2] it was 40.8 µM; in [9] it was 41.6 µM; in test [3] it was 1.29 µM; in test [5], 6.22 µM; in [10], 27 µM. Besides, the results for the GI50 in test [6], in [7] and in test [8] were 15 µM, 22.6 µM and 10.7 µM, respectively. Besides, the TGI in [1] was 3.17 µM; in test [2] it was greater than 100 µM; in [9] it was greater than 100 µM; in test [3], 6.67 µM; in test [5], 24 µM; in [10] it was 86.8 µM. The TGI in test [6] was 87.9 µM; in test [7], 87.5 µM; in test [8], 23.2 µM.
For the compound `Cn1nc(-c2ccccc2)c(C(=O)/C=C/c2ccc(F)cc2)c(N2CCOCC2)c1=O`, the TGI in test [1] is 75.4 µM; in test [2], 38.2 µM; in [9] it was 27.8 µM; in test [3] it was 48.7 µM; in [5], greater than 100 µM; in [6] it was 34.6 µM. Further, the TGI in test [7] is 31.8 µM; in [8], 48.8 µM.
With `Cc1cc(C)nc(NS(=O)(=O)c2ccc(NC(=O)c3ccc(Cl)c4c(Nc5ccc(S(=O)(=O)N=C(N)N)cc5)c5ccccc5nc34)cc2)n1`, the TGI is 44.4 µM in test [1]; greater than 100 µM in test [2]; 63.2 µM in [3]; greater than 100 µM in [10]; greater than 100 µM in [6]; greater than 100 µM in test [7]. This compound displayed a TGI in test [8] greater than 100 µM.
Regarding `CC1=NN(C(=O)c2ccc(Cl)cc2)C(=O)/C1=C/c1ccco1`, the total growth inhibition concentration (TGI) in [1], in test [2], in [9], in [3], in test [5] and in [10] was greater than 100 µM throughout. Also, the TGI in test [6], in test [7] and in test [8] was greater than 100 µM each time.
Consider `COc1cc2c(cc1OC)c1c(OC)c(OC)cc3c1c1c2sc(=S)n1CC3`, for which the TGI in [1], in test [2], in test [9], in test [3], in [5] and in test [10] was greater than 100 µM throughout. The TGI in test [6] was greater than 100 µM; in test [7] it was greater than 100 µM; in test [8], 35.1 µM.
With `COc1cc(/C=C\c2ccc(OC(C)=O)cc2)cc(OC)c1OC`, the TGI is greater than 100 µM in test [2]; greater than 100 µM in [3]; greater than 100 µM in test [4]; greater than 100 µM in test [10]; 94.2 µM in test [6]; greater than 100 µM in test [7]. In addition, the TGI in test [8] was greater than 100 µM.
For `CCOC(=O)C1SC(=Nc2ccc(Cl)cc2C)N=C1C` (centres undefined), the TGI in test [1] is 28.2 µM; in [2] it was 94.5 µM; in test [9], 35.8 µM; in [3] it was 47.9 µM; in test [5] it was 37.1 µM; in test [10], 79.9 µM. The TGI in [6] is 31 µM; in test [7] it was greater than 100 µM; in test [8] it was 35.3 µM.
With `NNC(=O)N/N=C1\C(=O)N(c2nccs2)C(=O)C(=O)C1c1nc2ccccc2s1` (centres undefined), the TGI in test [1], in test [2], in test [9], in test [5], in test [10] and in test [6] was greater than 100 µM each time. The TGI in test [7] and in [8] was greater than 100 µM each time.
